These results are taken from patent US4822809A, “Benzazole lipoxygenase inhibiting compounds” (Abbott Laboratories, priority 1987, dated 1989).

The assay deals with T1, 5-lipoxygenase (Rattus norvegicus, UniProt P12527).
T1 construct: 20,000×g supernatant from 6×10^4 homogenized RBL-1 cells; endogenous in cells; host or cells: RBL-1 cells (20,000×g supernatant of homogenate)
T1 sequence (P12527 1-673): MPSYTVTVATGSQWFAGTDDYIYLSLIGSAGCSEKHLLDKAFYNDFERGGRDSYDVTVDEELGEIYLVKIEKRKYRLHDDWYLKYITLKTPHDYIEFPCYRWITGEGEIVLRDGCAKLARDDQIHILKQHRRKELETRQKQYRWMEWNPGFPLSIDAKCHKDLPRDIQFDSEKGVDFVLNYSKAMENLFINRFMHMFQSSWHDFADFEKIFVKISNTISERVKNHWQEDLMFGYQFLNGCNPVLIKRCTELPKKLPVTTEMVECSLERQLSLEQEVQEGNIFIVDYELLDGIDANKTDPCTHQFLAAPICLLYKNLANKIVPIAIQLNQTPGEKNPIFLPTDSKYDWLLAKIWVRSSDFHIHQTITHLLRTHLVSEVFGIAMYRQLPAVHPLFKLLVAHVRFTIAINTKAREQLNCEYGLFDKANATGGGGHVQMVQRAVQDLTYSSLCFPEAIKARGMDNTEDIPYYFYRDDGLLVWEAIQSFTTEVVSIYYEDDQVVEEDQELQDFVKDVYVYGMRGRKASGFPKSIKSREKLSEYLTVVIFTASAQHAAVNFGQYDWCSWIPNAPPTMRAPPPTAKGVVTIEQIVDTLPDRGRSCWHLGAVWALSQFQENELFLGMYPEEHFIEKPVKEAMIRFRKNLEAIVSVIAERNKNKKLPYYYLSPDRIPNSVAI
The assay can be described thus: 5-lipoxygenase inhibition, 20,000×g supernatant of homogenized RBL-1 cells, radiolabelled arachidonic acid. Type of assay: biochemical. Particulars: In vitro 5-lipoxygenase inhibitory potency; RBL-1 cell 20,000×g supernatant, 2% DMSO. On the procedure: Assays to determine 5-lipoxygenase activity were performed in 200 μL incubations containing the 20,000×g supernatant from 6×10^4 homogenized RBL-1 cells, 2% DMSO vehicle and various concentrations of the test compound. Reactions were initiated by addition of radiolabelled arachidonic acid and terminated by acidification and ether extraction. Reaction products were separated from nonconverted substrate by thin layer chromatography and measured by liquid scintillation spectroscopy. All treatments were evaluated in triplicate incubations. Inhibition of 5-lipoxygenase activity was computed by comparison of the quantity of products formed in the treatment incubations to the mean product formation in vehicle control groups (n=8). IC50 values and 95% confidence limits were computed by linear regression analysis of percentage inhibition versus log inhibitor concentration plots. The results of the assay indicate that the compounds are inhibitors of 5-lipoxygenase.

Broadly, the IC50 is the concentration at which inhibition is half-maximal. The low end stands for higher potency, the high end for lower potency. Regarding `CNC(=O)N(O)Cc1nc2ccccc2n1C` [Example 1, N-hydroxy-N-(1-methyl-benzo[b]imidazol-2-ylmethyl)N'-methylurea], the half-maximal inhibitory concentration (IC50) was 85 µM.

Consider `CC(c1nc2ccccc2s1)N(O)C(N)=O` (centres unmarked) [Example 2, N-hydroxy-N-(1-benzo[b]thiazol-2-ylethyl)urea], for which the IC50 was 1.9 µM.
